Key:
Test in all cases: relative viability (nuclei count vs DMSO), 5 days (fraction); higher = more cells survive
[1] = system: NCI-H1944
Outline: (§1)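 Lung cancer cell lines in 1536-well plates were dosed by pin tool the day after seeding, either with one drug alone or with a fixed anchor-drug dose plus five library-drug doses (not always all listed) in √10 steps. After 5 days, cells were fixed and their nuclei stained in one step (final 0.05% Triton X-100, 1% formaldehyde, 1 ug/ml Hoechst), then counted on 4× images. Relative viability is the nuclei count in treated wells divided by that in vehicle wells. Values are medians of duplicate plates.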

[2] = system: NCI-H838
Outline: as §1

[3] = system: HCC-78
Outline: as §1

[4] = system: SK-LU-1
Outline: as §1

[5] = system: NCI-H1734
Outline: as §1

[6] = system: EMC-BAC-2
Outline: as §1

[7] = system: UMC-11
Outline: as §1

[8] = system: SW 1573
Outline: as §1

[9] = system: NCI-H441
Outline: as §1

[10] = system: NCI-H522
Outline: as §1

[11] = system: LC-2-ad
Outline: as §1

[12] = system: HOP-62
Outline: as §1

[13] = system: NCI-H2087
Outline: as §1

[14] = system: NCI-H1975
Outline: as §1

[15] = system: NCI-H2347
Outline: as §1

[16] = system: NCI-H2126
Outline: as §1

[17] = system: NCI-H727
Outline: as §1

[18] = system: HCC-366
Outline: as §1

[19] = system: NCI-H2009
Outline: as §1

[20] = system: PC-3 [JPC-3]
Outline: as §1

[21] = system: ChaGo-K-1
Outline: as §1

[22] = system: HCC-44
Outline: as §1

[23] = system: NCI-H1355
Outline: as §1

## Oc1nc(-c2ccc(C(F)(F)F)cc2)nc2c1CSCC2 [XAV939] + CC(=O)c1c(C)c2cnc(Nc3ccc(N4CCNCC4)cn3)nc2n(C2CCCC2)c1=O [Palbociclib] (partner 0.5 µM)
[1]; first compound 0.08 µM
  relative viability: 0.347
[1]; first compound 0.253 µM
  relative viability: 0.337
[1]; first compound 0.8 µM
  relative viability: 0.34
[1]; first compound 2.53 µM
  relative viability: 0.267
[2]; first compound 0.08 µM
  relative viability: 0.217
[2]; first compound 0.253 µM
  relative viability: 0.203
[2]; first compound 0.8 µM
  relative viability: 0.179
[2]; first compound 2.53 µM
  relative viability: 0.148
[3]; first compound 0.08 µM
  relative viability: 0.479
[3]; first compound 0.253 µM
  relative viability: 0.382
[3]; first compound 0.8 µM
  relative viability: 0.466
[3]; first compound 2.53 µM
  relative viability: 0.527
[4]; first compound 0.08 µM
  relative viability: 0.387
[4]; first compound 0.253 µM
  relative viability: 0.335
[4]; first compound 0.8 µM
  relative viability: 0.396
[4]; first compound 2.53 µM
  relative viability: 0.394
[5]; first compound 0.08 µM
  relative viability: 0.346
[5]; first compound 0.253 µM
  relative viability: 0.3
[5]; first compound 0.8 µM
  relative viability: 0.321
[5]; first compound 2.53 µM
  relative viability: 0.357
[6]; first compound 0.08 µM
  relative viability: 0.555
[6]; first compound 0.253 µM
  relative viability: 0.491
[6]; first compound 0.8 µM
  relative viability: 0.478
[6]; first compound 2.53 µM
  relative viability: 0.338
[7]; first compound 0.08 µM
  relative viability: 0.326
[7]; first compound 0.253 µM
  relative viability: 0.287
[7]; first compound 0.8 µM
  relative viability: 0.355
[7]; first compound 2.53 µM
  relative viability: 0.232
[8]; first compound 0.08 µM
  relative viability: 0.414
[8]; first compound 0.253 µM
  relative viability: 0.3
[8]; first compound 0.8 µM
  relative viability: 0.326
[8]; first compound 2.53 µM
  relative viability: 0.279
[9]; first compound 0.08 µM
  relative viability: 0.222
[9]; first compound 0.253 µM
  relative viability: 0.189
[9]; first compound 0.8 µM
  relative viability: 0.182
[9]; first compound 2.53 µM
  relative viability: 0.189
[10]; first compound 0.08 µM
  relative viability: 1.05
[10]; first compound 0.253 µM
  relative viability: 0.884
[10]; first compound 0.8 µM
  relative viability: 0.973
[10]; first compound 2.53 µM
  relative viability: 1.03
[11]; first compound 0.08 µM
  relative viability: 0.502
[11]; first compound 0.253 µM
  relative viability: 0.397
[11]; first compound 0.8 µM
  relative viability: 0.462
[11]; first compound 2.53 µM
  relative viability: 0.478
[12]; first compound 0.08 µM
  relative viability: 0.467
[12]; first compound 0.253 µM
  relative viability: 0.4
[12]; first compound 0.8 µM
  relative viability: 0.378
[12]; first compound 2.53 µM
  relative viability: 0.313
[13]; first compound 0.08 µM
  relative viability: 0.325
[13]; first compound 0.253 µM
  relative viability: 0.182
[13]; first compound 0.8 µM
  relative viability: 0.224
[13]; first compound 2.53 µM
  relative viability: 0.164
[14]; first compound 0.08 µM
  relative viability: 0.54
[14]; first compound 0.253 µM
  relative viability: 0.483
[14]; first compound 0.8 µM
  relative viability: 0.618
[14]; first compound 2.53 µM
  relative viability: 0.508
[15]; first compound 0.08 µM
  relative viability: 0.403
[15]; first compound 0.253 µM
  relative viability: 0.412
[15]; first compound 0.8 µM
  relative viability: 0.435
[15]; first compound 2.53 µM
  relative viability: 0.429
[16]; first compound 0.08 µM
  relative viability: 0.301
[16]; first compound 0.253 µM
  relative viability: 0.352
[16]; first compound 0.8 µM
  relative viability: 0.35
[16]; first compound 2.53 µM
  relative viability: 0.336
[17]; first compound 0.08 µM
  relative viability: 0.711
[17]; first compound 0.8 µM
  relative viability: 0.642
[17]; first compound 2.53 µM
  relative viability: 0.644
[18]; first compound 0.08 µM
  relative viability: 0.444
[18]; first compound 0.253 µM
  relative viability: 0.334
[18]; first compound 0.8 µM
  relative viability: 0.352
[18]; first compound 2.53 µM
  relative viability: 0.261
[19]; first compound 0.08 µM
  relative viability: 0.275
[19]; first compound 0.253 µM
  relative viability: 0.239
[19]; first compound 0.8 µM
  relative viability: 0.188
[19]; first compound 2.53 µM
  relative viability: 0.317
[20]; first compound 0.253 µM
  relative viability: 0.5
[20]; first compound 0.8 µM
  relative viability: 0.523
[20]; first compound 2.53 µM
  relative viability: 0.485
[21]; first compound 0.08 µM
  relative viability: 0.99
[21]; first compound 0.253 µM
  relative viability: 0.925
[21]; first compound 0.8 µM
  relative viability: 0.915
[21]; first compound 2.53 µM
  relative viability: 0.887
[22]; first compound 0.08 µM
  relative viability: 0.899
[22]; first compound 0.253 µM
  relative viability: 0.842
[22]; first compound 0.8 µM
  relative viability: 0.888
[22]; first compound 2.53 µM
  relative viability: 0.807
[23]; first compound 0.08 µM
  relative viability: 0.401
[23]; first compound 0.253 µM
  relative viability: 0.319
[23]; first compound 0.8 µM
  relative viability: 0.351
[23]; first compound 2.53 µM
  relative viability: 0.282
